Drawing on ChEMBL document CHEMBL1201862, “PubChem BioAssay data set” (2004), this text covers IC50, AC50 and EC50 for 25 molecules.

As a reminder, the IC50 is the concentration needed to halve the response being measured. For orientation: AC50 means the concentration giving half of the maximal activity seen. The term EC50 denotes the concentration that produces a half-maximal response.

In test [1] the target is T1, Protein skinhead-1 (Caenorhabditis elegans, UniProt P34707).
T1 sequence (P34707 whole entry): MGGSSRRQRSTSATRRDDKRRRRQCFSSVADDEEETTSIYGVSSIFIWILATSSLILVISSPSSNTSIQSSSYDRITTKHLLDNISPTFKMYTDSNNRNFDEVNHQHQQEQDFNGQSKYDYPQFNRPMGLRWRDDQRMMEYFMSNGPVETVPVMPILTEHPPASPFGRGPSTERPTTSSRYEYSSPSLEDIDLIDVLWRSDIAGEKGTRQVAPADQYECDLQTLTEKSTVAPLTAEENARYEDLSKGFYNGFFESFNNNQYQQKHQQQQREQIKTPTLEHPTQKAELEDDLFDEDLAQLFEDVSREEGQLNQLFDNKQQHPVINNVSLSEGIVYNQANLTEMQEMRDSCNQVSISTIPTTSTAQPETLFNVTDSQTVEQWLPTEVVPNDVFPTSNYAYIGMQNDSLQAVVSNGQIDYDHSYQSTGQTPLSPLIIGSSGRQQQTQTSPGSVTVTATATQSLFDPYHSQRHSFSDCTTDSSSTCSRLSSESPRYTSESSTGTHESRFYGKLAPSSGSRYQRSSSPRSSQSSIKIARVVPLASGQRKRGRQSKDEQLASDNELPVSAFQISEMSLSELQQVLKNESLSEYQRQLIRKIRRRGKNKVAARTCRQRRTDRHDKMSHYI
Type of test: functional.

Test [2] can be described thus: inhibitors of clade B AD8 Env fusion, dose response, cell-based, cherry-pick (AID 652062).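 Also: luciferase signal from cell-cell fusion driven by HIV-1 clade B AD8 Env; potency is for inhibitors of fusion seen as a drop in luminescence.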 Type of test: functional.
Test [3] in a line: off-target signal loss in HeLa-CEM21 co-culture – HeLa F-luc CTL cells, cherry-picked, counter-screen for HIV-1 Env fusion inhibitor project, dose response (AID 652040).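 Also: potency for signal decrease marking cytotoxic or nonspecific inhibition.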 Type of test: functional, cell-based. A general note: The purpose of a counterscreen is to sort out artefacts and off-target activity.
The target of test [4] is T2, Calpain-2 catalytic subunit (Sus scrofa, UniProt P43367).
T2 sequence (P43367 whole entry): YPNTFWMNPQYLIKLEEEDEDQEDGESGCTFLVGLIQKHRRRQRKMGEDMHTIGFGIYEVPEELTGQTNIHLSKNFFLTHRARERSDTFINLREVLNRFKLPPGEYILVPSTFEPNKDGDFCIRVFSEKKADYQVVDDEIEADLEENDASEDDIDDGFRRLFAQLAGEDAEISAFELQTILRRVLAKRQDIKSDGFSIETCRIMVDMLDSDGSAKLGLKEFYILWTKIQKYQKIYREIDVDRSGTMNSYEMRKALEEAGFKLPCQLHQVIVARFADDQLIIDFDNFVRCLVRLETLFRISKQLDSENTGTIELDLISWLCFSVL
As to the kind of experiment: pig calpain II inhibitor potency, dose response, biochemical, fluorogenic peptide substrate (AID 1420). Type of test: functional.

The nature of test [5]: cells. It is filed as functional, cell-based.
Test [6] has as its target T3, Trace amine-associated receptor 1 (Homo sapiens, UniProt Q96RJ0).
T3 sequence (Q96RJ0 whole entry): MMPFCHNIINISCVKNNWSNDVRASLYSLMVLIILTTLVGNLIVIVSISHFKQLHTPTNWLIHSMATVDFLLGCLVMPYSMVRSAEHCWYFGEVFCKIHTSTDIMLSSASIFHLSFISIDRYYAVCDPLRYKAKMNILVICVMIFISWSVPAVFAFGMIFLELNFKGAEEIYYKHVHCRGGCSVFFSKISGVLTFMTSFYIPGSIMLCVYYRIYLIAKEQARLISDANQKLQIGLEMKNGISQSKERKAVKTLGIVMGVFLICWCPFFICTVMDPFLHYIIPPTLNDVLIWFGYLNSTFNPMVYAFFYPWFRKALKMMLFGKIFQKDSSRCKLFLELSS
Description: Fluorescence-based cell-based high throughput dose response assay to identify agonists of the human trace amine associated receptor 1 (TAAR1). Type of test: functional.

Test [7] addresses T3, Trace amine-associated receptor 1. As to the kind of experiment: Counterscreen for agonists of the human trace amine associated receptor 1 (hTAAR1): Fluorescence-based cell-based high throughput dose response assay to identify hTAAR1 agonist that also desensitize TAAR1 receptor response. It is filed as functional.
Test [8] is described as follows: cells. It is filed as functional, cell-based. This is another data set of the same source.
The target in test [9] is T4, Long-chain-fatty-acid--AMP ligase FadD28 (Mycobacterium tuberculosis, UniProt P9WQ59).
T4 sequence (P9WQ59 whole entry): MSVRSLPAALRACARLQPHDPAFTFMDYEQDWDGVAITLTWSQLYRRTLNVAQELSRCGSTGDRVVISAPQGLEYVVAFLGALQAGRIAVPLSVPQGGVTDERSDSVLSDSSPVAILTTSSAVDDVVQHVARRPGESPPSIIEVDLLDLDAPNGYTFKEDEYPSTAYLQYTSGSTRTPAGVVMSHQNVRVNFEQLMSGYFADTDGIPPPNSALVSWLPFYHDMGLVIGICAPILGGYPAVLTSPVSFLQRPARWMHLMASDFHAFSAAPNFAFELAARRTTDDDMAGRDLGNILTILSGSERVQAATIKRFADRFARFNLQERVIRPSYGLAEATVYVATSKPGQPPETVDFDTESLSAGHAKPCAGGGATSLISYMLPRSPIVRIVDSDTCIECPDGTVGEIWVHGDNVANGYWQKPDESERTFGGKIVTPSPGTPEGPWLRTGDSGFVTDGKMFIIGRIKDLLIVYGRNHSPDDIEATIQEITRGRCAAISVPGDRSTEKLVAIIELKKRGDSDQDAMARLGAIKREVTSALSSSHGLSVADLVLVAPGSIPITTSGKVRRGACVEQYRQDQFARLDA
As to the kind of experiment: Fluorescence polarization aasay to screen for inhibitors that compete for the binding of FadD28 to a bisubstrate Measured in Biochemical System Using Plate Reader - 2147-01_Inhibitor_Dose_CherryPick_Activity. Type of test: functional, Mycobacterium tuberculosis H37Rv. On the technique in general: In fluorescence polarisation assays a small probe gives low polarisation when free and higher when bound to something large.

Test [10] addresses T5, Rac GTPase-activating protein 1 (Homo sapiens, UniProt Q9H0H5).
T5 sequence (Q9H0H5 whole entry): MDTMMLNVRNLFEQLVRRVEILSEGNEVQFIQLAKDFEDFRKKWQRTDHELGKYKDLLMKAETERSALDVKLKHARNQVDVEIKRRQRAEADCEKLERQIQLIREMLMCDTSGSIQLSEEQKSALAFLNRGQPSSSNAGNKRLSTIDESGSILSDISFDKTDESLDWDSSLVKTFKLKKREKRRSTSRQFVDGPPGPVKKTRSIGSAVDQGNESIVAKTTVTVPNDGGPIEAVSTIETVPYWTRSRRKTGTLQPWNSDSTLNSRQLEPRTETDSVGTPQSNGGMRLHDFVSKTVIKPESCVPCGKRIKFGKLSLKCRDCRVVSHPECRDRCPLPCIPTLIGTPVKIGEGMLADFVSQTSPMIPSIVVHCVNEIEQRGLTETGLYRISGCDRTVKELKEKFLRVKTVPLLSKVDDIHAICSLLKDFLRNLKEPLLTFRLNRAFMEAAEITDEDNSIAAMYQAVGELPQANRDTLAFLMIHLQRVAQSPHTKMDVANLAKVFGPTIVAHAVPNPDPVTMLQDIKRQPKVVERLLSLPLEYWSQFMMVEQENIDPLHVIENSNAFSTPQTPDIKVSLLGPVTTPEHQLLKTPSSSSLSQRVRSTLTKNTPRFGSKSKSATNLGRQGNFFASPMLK
As to the kind of experiment: MgcRacGAP GTPase-activating activity inhibitors, confirmation, biochemical, ADP Hunter fluorescence, primary and confirmatory (AID 624330). It is filed as functional.

The target of test [11] is Paired box protein Pax-8 (Homo sapiens, UniProt Q06710). Description: inhibitors of PAX8-driven TPO luciferase reporter, dose response, RMG-I cells, cherry-pick (AID 687027).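 Also: luciferase reporter driven by Pax8 target thyroperoxidase promoter measured by SteadyGlo luminescence.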 It is filed as functional, cell-based. (A reporter such as luciferase makes a cellular process visible.)
Sequence of Paired box protein Pax-8 (Q06710 whole entry): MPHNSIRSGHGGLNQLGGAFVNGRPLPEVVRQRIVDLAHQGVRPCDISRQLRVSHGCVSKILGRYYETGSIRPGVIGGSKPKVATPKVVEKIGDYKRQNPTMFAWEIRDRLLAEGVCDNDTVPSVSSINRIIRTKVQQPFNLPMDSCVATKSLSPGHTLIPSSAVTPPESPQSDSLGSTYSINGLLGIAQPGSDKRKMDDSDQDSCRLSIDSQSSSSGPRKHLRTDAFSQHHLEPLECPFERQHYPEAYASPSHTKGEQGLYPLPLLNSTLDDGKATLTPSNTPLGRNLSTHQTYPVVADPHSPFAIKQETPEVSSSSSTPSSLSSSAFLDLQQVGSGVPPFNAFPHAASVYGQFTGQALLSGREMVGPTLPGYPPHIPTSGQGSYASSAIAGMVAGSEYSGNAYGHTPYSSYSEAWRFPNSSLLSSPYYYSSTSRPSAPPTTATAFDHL
Test [12] addresses Genome polyprotein (dengue virus type 2, UniProt P29990). As to the kind of experiment: Dengue-2 NS5 methyltransferase inhibitors, primary screen, biochemical, confirmation dose response (AID 588689). It is filed as functional.
Test [13] can be described thus: inhibitors of HIV Env-driven cell fusion, dose response, cherry-pick (AID 652057). Type of test: functional, cell-based.

SMILES strings stand for the structures. Activity calls are given as the source filed them.

Sequence of Genome polyprotein (P29990 2492-3391 limits assumed): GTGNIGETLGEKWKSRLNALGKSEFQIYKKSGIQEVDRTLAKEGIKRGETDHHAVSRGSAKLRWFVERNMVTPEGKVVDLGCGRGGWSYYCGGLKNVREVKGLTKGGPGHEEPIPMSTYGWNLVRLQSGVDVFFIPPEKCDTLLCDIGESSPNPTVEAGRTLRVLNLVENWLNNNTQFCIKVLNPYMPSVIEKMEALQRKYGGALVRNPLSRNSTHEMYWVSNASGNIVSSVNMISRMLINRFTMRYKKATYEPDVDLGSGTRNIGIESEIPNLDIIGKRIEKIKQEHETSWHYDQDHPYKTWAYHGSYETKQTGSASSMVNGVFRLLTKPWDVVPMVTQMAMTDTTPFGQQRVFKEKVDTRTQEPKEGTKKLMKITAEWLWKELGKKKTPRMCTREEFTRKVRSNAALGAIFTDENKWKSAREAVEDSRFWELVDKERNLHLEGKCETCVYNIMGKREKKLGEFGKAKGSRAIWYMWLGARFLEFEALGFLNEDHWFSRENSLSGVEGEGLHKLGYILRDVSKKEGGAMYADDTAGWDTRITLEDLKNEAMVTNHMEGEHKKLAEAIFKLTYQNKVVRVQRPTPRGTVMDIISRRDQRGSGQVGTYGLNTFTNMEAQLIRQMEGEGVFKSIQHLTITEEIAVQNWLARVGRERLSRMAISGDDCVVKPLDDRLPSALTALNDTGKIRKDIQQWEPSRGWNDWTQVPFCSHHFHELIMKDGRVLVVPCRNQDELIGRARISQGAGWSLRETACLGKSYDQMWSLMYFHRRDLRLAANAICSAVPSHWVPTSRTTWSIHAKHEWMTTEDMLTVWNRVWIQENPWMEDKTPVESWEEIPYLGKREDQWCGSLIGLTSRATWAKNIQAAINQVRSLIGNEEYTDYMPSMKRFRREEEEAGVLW

For `c1ccc(-c2csc(-c3cccnc3)n2)cc1`, the IC50 in [1] is 40.4 µM (active).

With `Cn1c(=O)oc2cc(S(=O)(=O)NCc3ccncc3)ccc21`, the half-maximal activity concentration (AC50) in test [2] is 17.4 µM (active); in test [3], 58.5 µM (active).

Turning to `O=C1c2cccc3cccc(c23)C(=O)N1CCCN1CCN(c2ccc(F)cc2)CC1`, the concentration for half-maximal inhibition (IC50) in [4] is listed as 8.84 µM (not active).

`Cc1cc2c(C)ccc(C)c2nc1SCC(=O)c1cccs1`: the IC50 in test [4] is < 0.4 µM (not active).

`Cc1nc(NCCc2ccccc2)c2nnn(Cc3ccccc3Cl)c2n1`: the EC50 in test [5] was > 29.9 µM (inactive); in [6] it was 0.59 µM (active). For the same molecule, the IC50 in test [7] was 3.51 µM (active); in test [8] it was > 29.9 µM (inactive).

`NC(=O)C1CCN(c2oc(-c3ccccc3F)nc2S(=O)(=O)c2ccc(Cl)cc2)CC1`: in test [1], the IC50 is > 100 µM (inactive).

As for `O=C(Nc1ccc2oc(-c3ccccc3)nc2c1)c1cccnc1`, the IC50 in [1] is > 100 µM (inactive).

Take `COc1ccc(C(=O)OCC(=O)c2ccccc2)cc1S(=O)(=O)N1CCOCC1`: the AC50 in [9] was > 100 µM (inactive).

Turning to `COc1cccc(NC(=O)Cn2c(=O)oc3ccccc32)c1`, the AC50 in test [9] was 8.71 µM (active).

Turning to `C=CCc1cc(C)ccc1OCCCn1ccnc1`, the IC50 in test [10] is 127 µM (active).

Regarding `COc1cccc(CNc2ccc(F)c([N+](=O)[O-])c2)c1O`, the concentration for half-maximal inhibition (IC50) in [4] was 7.78 µM (active).

For `CCCCn1c(S)nnc1-c1csc(CCC)c1`, in [4], the IC50 is listed as 24.1 µM (not active).

Turning to `Cc1cc(NC(=O)CSc2nc3sc4c(c3c(=O)n2C)CCCC4)no1`, in test [4], the IC50 was 25.2 µM (not active).

`O=C(NCCc1ccccc1)c1ccc(CS(=O)(=O)Cc2ccccc2F)o1`: the EC50 in test [5] was > 29.9 µM (inactive); in [6] it was 2.78 µM (active). Further, the IC50 is 5.69 µM (active) in test [7] and 17.7 µM (inactive) in [8].

`CC(C)(C)N(Cc1ccc2c(c1)OCO2)C(=O)/C=C\[S+]([O-])c1ccccc1` (configuration not stated): the concentration at half-maximal activity (AC50) in test [11] was 6.14 µM (active). For the same molecule, the IC50 in test [10] was 125 µM (active).

`C=CCn1c(SCC(=O)c2c(N)n(C)c(=O)n(C)c2=O)nnc1-c1ccoc1C`: the IC50 in test [1] is > 100 µM (inactive).

For the molecule `Cc1cccc(NC2=NCC(=O)N2CCc2ccccc2)c1`, the EC50 in [5] was > 29.9 µM (inactive); in test [6], 0.866 µM (active). Moreover, the IC50 in test [7] is 7.06 µM (active); in [8] it was > 29.9 µM (inactive).

Turning to `C=CCSc1nnc2c(n1)-c1cccc3cccc-2c13`, the half-maximal inhibitory concentration (IC50) in [1] is 18.2 µM (active).

`O=C(CSc1nc(O)cc(=O)n1-c1ccccc1)Nc1nc2ccccc2s1`: the half-maximal activity concentration (AC50) in test [9] was 32 µM (active).

As for `COc1ccc2c(c1)Cc1cc(NC(=O)c3ccccc3-c3ccccc3C(=O)O)ccc1-2`, in test [12], the IC50 is 46.3 µM (active). Besides, the AC50 in [9] is 89.9 µM (active).

For the molecule `NC(Cc1ccc(F)cc1)c1csc(Nc2ccc(S(N)(=O)=O)cc2)n1` (configuration not stated), the EC50 in test [5] is > 29.9 µM (inactive); in test [6], 5.18 µM (active). For the same molecule, the IC50 in [7] and in test [8] was > 29.9 µM (inactive) throughout.

In the case of `COc1cccc(S(=O)(=O)N(C)C[C@@H]2Oc3cc(C#CCC(C)C)ccc3S(=O)(=O)N([C@H](C)CO)C[C@@H]2C)c1`, the figures for the half-maximal activity concentration (AC50) in test [2] and in [13] were 17.9 µM (active) and 20.1 µM (active), respectively.

For the molecule `COc1cc(/C=N/NC(=O)CNC(=O)c2ccc3c(c2)OCCO3)ccc1O`, the IC50 in test [10] is 54.9 µM (active).

Consider `Oc1nncc(N/N=C\c2cccs2)c1Cl`, for which, in test [5], the EC50 was > 29.9 µM (inactive). In [8], the IC50 is > 29.9 µM (inactive).

Consider `O=c1c(-c2ccc(O)cc2)coc2cc(O)ccc12` [DAIDZEIN], for which, in test [10], the IC50 is 91.3 µM (active).
